# Source: US20140378307A1, “AROMATIC PHOSPHATE ESTERS AS AGROCHEMICAL FORMULATION COMPONENT” (SYNGENTA LIMITED, priority 2011, published 2014)
# Columns and labels:
# Type in all cases: in vivo
# Septoria tritici [1] = settings: S. tritici on wheat, adjuvant 0.2% v/v, conclusion from Table 2
# Septoria tritici [2] = settings: S. tritici on wheat, adjuvant 0.2% v/v, conclusion from Table 1
# [3] = system: Chenopodium album (CHEAL), Abutilon theophrasti (ABUTH), Setaria viridis (SETVI), Digitaria sanguinalis (DIGSA); assay: Glasshouse weed kill, nicosulfuron with tricresyl phosphate, Phosflex 362, triphenyl phosphate; settings: four weed species; for efficacy as adjuvant for nicosulfuron (in words): adjuvant 0.2% v/v, conclusion from Table 7
# Excerpt: (§1) Unless otherwise stated within a specific Example, all aromatic phosphate esters employed were initially formulated as 20% w′w emulsions containing 2% w/w Gohsenol®GLO3 (a polyvinyl alcohol, Nippon Gohsei, Hull, UK) and 2% Pluronic® PE10500 (an ethylene glycol-propylene glycol block copolymer, BASF Aktiengesellschaft, Ludwighsafen, Germany) as surfactants.
# The efficacy of the aromatic phosphate esters tricresyl phosphate, Phosflex®362 (2-ethylhexyl diphenyl phosphate) and triphenyl phosphate were tested in a glasshouse against four weed species using the herbicide nicosulfuron. An agrochemical composition was prepared containing 0.5% v/v of the adjuvant Atplus® 411F in a track sprayer, and was applied at a volume of 200 litres per hectare. The other adjuvants were tested at a arte of 0.2% v/v. Nicosulfuron was applied at a rate of either 30 or 60 grams of pesticide per hectare to weeds which had been grown to the 1.3 or 1.4 leaf stage. The weed species were Chenopodium album (CHEAL), Abutilon theophrasti (ABUTH), Setaria viridis (SETVI) and Digitaria sanguinalis (DIGSA).
# Each spray test was replicated three times. The efficacy of the herbicide was assessed visually and expressed as a percentage of the leaf area killed. Samples were assessed at time periods of 14 and 21 days following application. The results shown in Table 7 below are mean averages over the two rates of nicosulfuron, three replicates, four weed species and the two assessment timings, and are compared to the efficacy of nicosulfuron in the absence of adjuvant and nicosulfuron in the presence of the known tank mix adjuvant Atplus®411F.
# [4] = system: Abutilon theophrasti (ABUTH), Chenopodium album (CHEAL), Digitaria sanguinalis (DIGSA), Setaria viridis (SETVI); assay: Glasshouse weed kill, nicosulfuron with Phosflex 31L and comparison adjuvants; settings: nicosulfuron 30 or 60 g/ha, 200 l/ha; Atplus 411F 0.5% v/v, other adjuvants 0.2% v/v; leaf area killed; mean over two rates, three replicates, four weed species, 14 and 21 days
# Excerpt: as §1
# The efficacy of the aromatic phosphate ester Phosflex®31L (isopropylated triphenyl phosphate) as an adjuvant for the herbicide nicosulfuron was tested against four weed species in the glasshouse and compared to the well-known tank mix adjuvant Atplus®411F as well as to a aromatic ester lacking the a phosphate moiety, butylene glycol benzoate. An agrochemical composition was prepared containing 0.5% v/v of the adjuvant Atplus 411F with the test compound in a track sprayer, and was applied at a volume of 200 litres per hectare. The other adjuvants were used at a rate of 0.2% v/v. Nicosulfuron was applied at a rate of either 30 or 60 grams per hectare. Nicosulfuron was applied to weeds which had been grown to the 1.3 or 1.4 leaf stage. […]
# (§2) Each spray test was replicated three times. The efficacy of the herbicide was assessed visually and expressed as a percentage of the leaf area killed. Samples were assessed at time periods of 14 and 21 days following application. […]
# [5] = system: Chenopodium album (CHEAL), Abutilon theophrasti (ABUTH), Setaria viridis (SETVI), Xanthium strumarium (XANST); assay: Glasshouse weed kill, fomesafen with Phosflex 31L and comparison adjuvants
# Excerpt: as §1
# The efficacy of the aromatic phosphate ester Phosflex®31L (isopropylated triphenyl phosphate) as an adjuvant for the herbicide fomesafen was tested against four weed species in the glasshouse and compared to the well-known tank mix adjuvant Turbocharge® as well as to a aromatic ester lacking the a phosphate moiety, butylene glycol benzoate. An agrochemical composition was prepared containing 0.5% v/v of the adjuvant Turbocharge with the test compound in a track sprayer, and was applied at a volume of 200 litres per hectare. Fomesafen was applied at a rate of either 60 or 120 grams per hectare. The other adjuvants were applied at a rate of 0.2% v/v. Fomesafen was applied to weeds which had been grown to the 1.3 or 1.4 leaf stage. […]
# (§3) Each spray test was replicated three times. The efficacy of the herbicide was assessed visually and expressed as a percentage of the leaf area killed. Samples were assessed at time periods of 7, 14 and 21 days following application. […]
# [6] = system: Alopecurus myosuroides (ALOMY), Avena fatua (AVEFA), Lolium perenne (LOLPE), Setaria viridis (SETVI); assay: Glasshouse weed kill, pinoxaden with Phosflex 31L and comparison adjuvants; settings: pinoxaden 7.5 or 15 g/ha, 200 l/ha; TEHP 0.5% v/v, other adjuvants 0.2% v/v; leaf area killed; mean over two rates, three replicates, four weed species, 14 and 21 days
# Protocol: as §1
# The efficacy of the aromatic phosphate ester Phosflex®31L (isopropylated triphenyl phosphate) as an adjuvant was tested in a glasshouse against four weed species using the herbicide pinoxaden. An agrochemical composition was prepared containing 0.2% v/v of the adjuvant in a track sprayer and was applied at a volume of 200 litres per hectare. Pinoxaden was applied at either 7.5 or 15 grams of pesticide per hectare on each of the weed species. The adjuvant TEHP was tested at a different rate from the other adjuvants, it being used at 0.5% v/v. The weed species and their growth stage at spraying were Alopecurus myosuroides (ALOMY; growth stage 13), Avena fatua (AVEFA; growth stage 12); Lolium perenne (LOLPE; growth stage 13), Setaria viridis (SETVI; growth stage 14).
# as §2
# [7] = system: Alopecurus myosuroides (ALOMY), Avena fatua (AVEFA), Lolium perenne (LOLPE), Setaria viridis (SETVI); assay: Glasshouse weed kill, pinoxaden with tricresyl phosphate, Phosflex 362, triphenyl phosphate; settings: pinoxaden 7.5 or 15 g/ha, 200 l/ha; TEHP 0.5% v/v, other adjuvants 0.2% v/v; leaf area killed; mean over two rates, three replicates, four weeds, 14 and 21 days
# Excerpt: as §1
# The efficacy of the aromatic phosphate esters tricresyl phosphate, Phosflex®362 (2-ethylhexyl diphenyl phosphate) and triphenyl phosphate were tested in a glasshouse against four weed species using the herbicide pinoxaden. An agrochemical composition was prepared containing 0.5% v/v of the adjuvant TEHP in a track sprayer and was applied at a volume of 200 litres per hectare. The other adjuvants were tested at a rate of 0.2% v/v. Pinoxaden was applied at either 7.5 or 15 grams per hectare on each of the weed species. The weed species and their growth stage at spraying were Alopecurus myosuroides (ALOMY; growth stage 13), Avena fatua (AVEFA; growth stage 12); Lolium perenne (LOLPE; growth stage 13), Setaria viridis (SETVI; growth stage 14).
# as §2
# [8] = system: Chenopodium album (CHEAL), Abutilon theophrasti (ABUTH), Setaria viridis (SETVI), Xanthium strumarium (XANST); assay: Glasshouse weed kill, fomesafen with tricresyl phosphate, Phosflex 362, triphenyl phosphate; settings: fomesafen 60 or 120 g/ha, 200 l/ha; Turbocharge 0.5% v/v, other adjuvants 0.2% v/v; leaf area killed; mean over two rates, three replicates, four weeds, 7, 14 and 21 days
# Excerpt: as §1
# The efficacy of the aromatic phosphate esters tricresyl phosphate, Phosflex®362 (2-ethylhexyl diphenyl phosphate) and triphenyl phosphate as adjuvants were tested in a glasshouse against four weed species using the herbicide fomesafen. An agrochemical composition was prepared containing 0.5% v/v of the adjuvant Turbocharge® in a track sprayer and was applied at a volume of 200 litres per hectare. The other adjuvants were tested at a rate of 0.2% v/v. Fomesafen was applied at a rate of either 60 or 120 grams per hectare on weeds which had been grown to the 1.3 or 1.4 leaf stage. […]
# as §3
# [9] = system: Polygonum convolvulus (POLCO), Brachiaria platyphylla (BRAPL), Digitaria sanguinalis (DIGSA), Amaranthus tuberculatus (AMATU); assay: Glasshouse weed kill, mesotrione with tricresyl phosphate, Phosflex 362, triphenyl phosphate; settings: mesotrione 60 or 120 g/ha, 200 l/ha; Turbocharge 0.5% v/v, other adjuvants 0.2% v/v; leaf area killed; mean over two rates, three replicates, four weeds, 7, 14 and 21 days
# [10] = system: Polygonum convolvulus (POLCO), Brachiaria platyphylla (BRAPL), Digitaria sanguinalis (DIGSA), Ambrosia artemisiifolia (AMBAR); assay: Glasshouse weed kill, mesotrione with Phosflex 31L and comparison adjuvants; settings: mesotrione 30 or 60 g/ha, 200 l/ha; Tween 20 0.5% v/v, other adjuvants 0.2% v/v; mean over two rates, three replicates, four weed species, three assessment timings
# Excerpt: as §1
# The efficacy of the aromatic phosphate ester Phosflex®31L (isopropylated triphenyl phosphate) as an adjuvant for the herbicide mesotrione was tested against four weed species in the glasshouse and compared to the known adjuvant Tween®20 as well as to a aromatic ester lacking the a phosphate moiety, butylene glycol benzoate. An agrochemical composition was prepared containing 0.5% v/v of the adjuvant Tween®20 with the test compound in a track sprayer, and was applied at a volume of 200 litres per hectare. The other adjuvants were tested at a rate of 0.2% v/v. Mesotrione was applied at a rate of either 30 or 60 grams per hectare to weeds which had been grown to the 1.3 or 1.4 leaf stage. The weed species were Polygonum convolvulus (POLCO), Brachiaria platyphylla (BRAPL), Digitaria sanguinalis (DIGSA) and Ambrosia artemisiifolia (AMBAR) […]
compound,measurement,setting,value
"CCCCC(CC)COP(=O)(Oc1ccccc1)Oc1ccccc1 (stereo not shown) [Phosflex®362, 2-ethylhexyl diphenyl phosphate]",efficacy as adjuvant for cyproconazole (in words),Septoria tritici [1],performed best as an adjuvant out of the compounds tested
same,efficacy as adjuvant for isopyrazam (in words),Septoria tritici [2],more efficacious as an adjuvant than any of the other compounds tested
same,efficacy as adjuvant for nicosulfuron (in words),[3],performing particularly well
tricresyl phosphate [tricresylphosphate],efficacy as adjuvant for nicosulfuron (in words),[3],performing particularly well
"COc1cc(OC)nc(NC(=O)NS(=O)(=O)c2ncccc2C(=O)N(C)C)n1 [Nicosulfuron, nicosulfuron]","Mean percentage kill, Mean across species","[3]; nicosulfuron 30 or 60 g/ha, 200 l/ha, Atplus 411F 0.5% v/v, other adjuvants 0.2% v/v, leaf area killed, mean over two rates, three replicates, 14 and 21 days",42.5%
same,"Mean percentage kill, Mean across species",[4],74.9 B %
"O=C(OCCCCO)c1ccccc1 [the ester lacking the phosphate moiety, butylene glycol benzoate]",efficacy as adjuvant for fomesafen (in words),"[5]; four weed species, adjuvant 0.2% v/v, conclusion from Table 4",is not
"CCc1cc(C)cc(CC)c1-c1c(OC(=O)C(C)(C)C)n2n(c1=O)CCOCC2 [Pinoxaden, pinoxaden]","Mean percentage kill, Mean across species",[6],17.4 D %
same,"Mean percentage kill, Mean across species",[7],16.0 C %
"CS(=O)(=O)NC(=O)c1cc(Oc2ccc(C(F)(F)F)cc2Cl)ccc1[N+](=O)[O-] [Fomesafen, fomesafen]","Mean percentage kill, Mean across species","[5]; fomesafen 60 or 120 g/ha, 200 l/ha, Turbocharge 0.5% v/v, other adjuvants 0.2% v/v, leaf area killed, mean over two rates, three replicates, four weed species, 7, 14 and 21 days",37.7 C %
same,"Mean percentage kill, Mean across species",[8],14.3%
"CS(=O)(=O)c1ccc(C(=O)C2C(=O)CCCC2=O)c([N+](=O)[O-])c1 [Mesotrione, mesotrione]","Mean percentage kill, Mean across species",[9],34.0 A %
same,"Mean percentage kill, Mean across species",[10],47.2 B %
